{
  "source": "patent US8629272B2",
  "about": "“Tricyclic pyrimidine derivatives as wnt antagonists” (Deutsches Krebsforschungszentrum, priority 2009, dated 2014)",
  "assay_type_in_all_cases": "cell-based",
  "key": {"[1]": {"test_system": "human colon carcinoma cells HCT116", "experiment": "Antiproliferative activity against HCT116, cell count", "description": "For examination of cell line-specific cytotoxicity, compounds were applied to human colorectal cancer cells (HCT116, denoted (1); SW480, denoted (2); Dld-1, denoted (3)) and human fibroblasts (HFF-1, denoted (4); HS-68, denoted (5)), cultured in Mc Coy's (1) and Dulbecco's Modified Eagles Medium (2-5), supplemented with 10% ((1)-(3)) and 20% ((4), (5)) fetal calf serum and 1% penicillin/streptomycin. Cells were grown in T75 flasks at 37° C., 5% CO2 and trypsinized when 60-80% confluent by adding 2 ml of 0.25% Trypsin-EDTA solution. Cells were then re-suspended into culture medium and approx. 750 cells, suspended in 45 microl medium, were plated into each well of a black 384-well plate for fluorescence imaging experiments. 24-36 hr later 5 microl compound solution (100 microM compound dissolved in ultra pure water containing 1% DMSO), were added to achieve a final concentration of 10 microM and were incubated for at least 72 hr. Compound incubation was terminated by (a) fixation and (b) permeabilisation of cells, followed by (c) fluorescence labeling of cell nuclei for cytometric quantification or by immunocytochemistry for microscopic evaluation of cell morphology. The three steps were performed by replacing the solution of the previous step in each well of a 384-well plate by (a) 30 microl PBS (phosphate buffered saline) containing 5% PFA (paraformaldehyde), (b) 30 microl PBS containing 0.2% TritonX-100 and (c) 10 microl PBS containing Hoechst-33342 for cytometry or Hoechst-33342, FITC (fluorescein isothiocyanate-) labeled α-tubulin antibodies and TRITC-(tetramethylrhodamine isothiocyanate-) labeled phalloidin antibodies for microscopy. Solutions were incubated for 15 (a,b) and 30 min (c) in the dark at room temperature. Cells were washed twice between each step with 30 microl PBS. The assay system was miniaturized and adapted to automated workflow using liquid-handling robotics.\nCell line-specific cytotoxicity was quantified by counting the number of Hoechst labeled nuclei per well of a 384-well plate using a plate cytometer. Data obtained with the cytometer was analysed using standard data analysis software.\nThe examination of the antiproliferative activity against human colon carcinoma cells HCT116 was carried out in analogy to example 35. […] Compounds of the present invention have potent antiproliferative activity against human colon carcinoma cells as shown for HCT116 in Table 6."}, "[2]": {"test_system": "Wnt signalling pathway", "experiment": "Wnt-sensitive reporter gene assay (6xTCF-luciferase, pTOP-FLASH) in Hek293T cells", "design": "Normalized Wnt pathway (inhibitory) activity: scale not given here", "description": "To screen for small-molecule modulators of the Wnt signalling pathway, a reporter gene based assay describing the modulation of the TCF4 transcription factor was used. More specifically 4000 Hek293T cells were seeded into 384 high density plates. 24 h after seeding a Wnt-sensitive reporter (6×TCF-luciferase (Firefly) (pTOP-FLASH; “Armadillo co activates transcription driven by the product of the drosophila segment polarity gene dTCF”, Cell, 1997, 88(6), pages 789-799) and constitutively expressed control reporter (Renilla luciferase pCMV-RL) were transfected into Hek293T. Wnt signaling was stimulated by cotransfecting mouse Wnt1, mouse Frizzled 8 and human LRP6 according to “Casein kinase 1 gamma couples Wnt receptor activation to cytoplasmic signal transduction”, Nature, 2005, 438 (7069), pages 867-872. 24 h after pathway stimulation compounds were added at a concentration of 10 microM and allowed to incubate for 24 h. For the evaluation of the IC50 the compound was applied in increasing concentrations yielding final concentrations per well of 5 nM-100 microM."}, "[3]": {"test_system": "Hek293T", "experiment": "Cytotoxicity in Hek293T, CellTiterGlo", "details": "24 h", "description": "(§1) For examination of cytotoxicity in these cancer cell lines the commercial available CellTiterGlo® Reagent (Promega, USA) was used according to the manufactor. Compounds were applied to Hek293T (denoted (1)) or HepG2 (denoted (2)), cultured in Dulbecco's Modified Eagles Medium, supplemented with 10% fetal calf serum and 1% penicillin/streptomycin. Cells were grown in T75 flasks at 37° C., 5% CO2 and trypsinized when 60-80% confluent by adding 2 ml of 0.25% Trypsin-EDTA solution. Cells were then re-suspended into culture medium yielding approx. 4000 cells (1) or 4500 cells (2), suspended in 30 microl medium. 48 h after cell seeding, compounds were added to yield the desired final concentrations. 24 h after compound addition cytotoxicity was evaluated. For this purpose the media was removed and CellTiterGlo® was added according to the manufactors manual. In this assay the luciferase emission readout is directly correlated with the cellular amount of ATP, low luciferase emission thus is reflecting cytotoxicity of a compound. For the evaluation of the IC50 the compound was applied in increasing concentrations yielding final concentrations per well of 5 nM-100 microM."}, "[4]": {"test_system": "HepG2", "experiment": "Cytotoxicity in HepG2, CellTiterGlo", "details": "24 h", "description": "as §1"}},
  "data": [
    {"smiles": "CCOC(=O)C1=C(c2ccccc2)c2c(n(-c3ccccc3)c(=O)n3c(-c4ccc(OC)cc4)nnc23)NC1C", "note": "(centres unmarked) [Example 18]", "values": [
      {"measurement": "Normalized cell count (HCT 116)", "setting": "[1]; 0.005 microM", "value": 1},
      {"measurement": "Normalized cell count (HCT 116)", "setting": "[1]; 0.015 microM", "value": 0.9377},
      {"measurement": "Normalized cell count (HCT 116)", "setting": "[1]; 0.046 microM", "value": 0.9859},
      {"measurement": "Normalized cell count (HCT 116)", "setting": "[1]; 0.137 microM", "value": 0.8603},
      {"measurement": "Normalized cell count (HCT 116)", "setting": "[1]; 0.412 microM", "value": 0.9166},
      {"measurement": "Normalized cell count (HCT 116)", "setting": "[1]; 1.235 microM", "value": 0.8399},
      {"measurement": "Normalized cell count (HCT 116)", "setting": "[1]; 3.704 microM", "value": 0.4154},
      {"measurement": "Normalized cell count (HCT 116)", "setting": "[1]; 11.111 microM", "value": 0.1595},
      {"measurement": "Normalized cell count (HCT 116)", "setting": "[1]; 33.333 microM", "value": 0.1555},
      {"measurement": "Normalized cell count (HCT 116)", "setting": "[1]; 100.000 microM", "value": 0.1892},
      {"measurement": "Normalized Wnt pathway (inhibitory) activity", "setting": "[2]; 0.005 microM", "value": 0.8680},
      {"measurement": "Normalized Wnt pathway (inhibitory) activity", "setting": "[2]; 0.015 microM", "value": 1.1175},
      {"measurement": "Normalized Wnt pathway (inhibitory) activity", "setting": "[2]; 0.046 microM", "value": 1.0168},
      {"measurement": "Normalized Wnt pathway (inhibitory) activity", "setting": "[2]; 0.137 microM", "value": 1.0825},
      {"measurement": "Normalized Wnt pathway (inhibitory) activity", "setting": "[2]; 0.412 microM", "value": 1.1223},
      {"measurement": "Normalized Wnt pathway (inhibitory) activity", "setting": "[2]; 1.235 microM", "value": 0.7260},
      {"measurement": "Normalized Wnt pathway (inhibitory) activity", "setting": "[2]; 3.704 microM", "value": 0.8798},
      {"measurement": "Normalized Wnt pathway (inhibitory) activity", "setting": "[2]; 11.111 microM", "value": 0.6365},
      {"measurement": "Normalized Wnt pathway (inhibitory) activity", "setting": "[2]; 33.333 microM", "value": 0.4930},
      {"measurement": "Normalized Wnt pathway (inhibitory) activity", "setting": "[2]; 100.000 microM", "value": 0.2505},
      {"measurement": "IC50", "setting": "[2]; Homo sapiens, HEK-293T, Hek293T, 24 h incubation, 5 nM-100 microM, read-out: IC50 of the Wnt signalling pathway inhibiting activity", "value": 22.1, "unit": "µM"},
      {"measurement": "Normalized toxicity values (Hek293T)", "setting": "[3]; 0.005 microM", "value": 1.1075},
      {"measurement": "Normalized toxicity values (Hek293T)", "setting": "[3]; 0.015 microM", "value": 1.0110},
      {"measurement": "Normalized toxicity values (Hek293T)", "setting": "[3]; 0.046 microM", "value": 1.0523},
      {"measurement": "Normalized toxicity values (Hek293T)", "setting": "[3]; 0.137 microM", "value": 1.0088},
      {"measurement": "Normalized toxicity values (Hek293T)", "setting": "[3]; 0.412 microM", "value": 1.0313},
      {"measurement": "Normalized toxicity values (Hek293T)", "setting": "[3]; 1.235 microM", "value": 1.0733},
      {"measurement": "Normalized toxicity values (Hek293T)", "setting": "[3]; 3.704 microM", "value": 1.1200},
      {"measurement": "Normalized toxicity values (Hek293T)", "setting": "[3]; 11.111 microM", "value": 1.0825},
      {"measurement": "Normalized toxicity values (Hek293T)", "setting": "[3]; 33.333 microM", "value": 1.1175},
      {"measurement": "Normalized toxicity values (Hek293T)", "setting": "[3]; 100.000 microM", "value": 0.9883},
      {"measurement": "Normalized toxicity values (HepG2)", "setting": "[4]; 0.005 microM", "value": 1.1400},
      {"measurement": "Normalized toxicity values (HepG2)", "setting": "[4]; 0.015 microM", "value": 1.0110},
      {"measurement": "Normalized toxicity values (HepG2)", "setting": "[4]; 0.046 microM", "value": 1.0350},
      {"measurement": "Normalized toxicity values (HepG2)", "setting": "[4]; 0.137 microM", "value": 0.9173},
      {"measurement": "Normalized toxicity values (HepG2)", "setting": "[4]; 0.412 microM", "value": 0.9185},
      {"measurement": "Normalized toxicity values (HepG2)", "setting": "[4]; 1.235 microM", "value": 0.9953},
      {"measurement": "Normalized toxicity values (HepG2)", "setting": "[4]; 3.704 microM", "value": 0.9855},
      {"measurement": "Normalized toxicity values (HepG2)", "setting": "[4]; 11.111 microM", "value": 1.0800},
      {"measurement": "Normalized toxicity values (HepG2)", "setting": "[4]; 33.333 microM", "value": 1.1125},
      {"measurement": "Normalized toxicity values (HepG2)", "setting": "[4]; 100.000 microM", "value": 1.1375}
    ]}
  ]
}
